The target in test [1] is Ribosomal protein S6 kinase beta-1 (Homo sapiens, UniProt P23443). Nature of the test: Selectivity interaction (Kinase panel (Z-LYTE Assay)) EUB0001632a RPS6KB1. The settings on record: at 10 µM.
Test [2] deals with ATP-sensitive inward rectifier potassium channel 11 (Homo sapiens) (UniProt Q14654). Nature of the test: Selectivity interaction (Eurofins CEREP Diversity Profile (receptors and ion channels)) EUB0000279b KCNJ11. As to conditions: at 10 µM.
Test [3] concerns the target 5'-AMP-activated protein kinase catalytic subunit alpha-1 (Homo sapiens, UniProt Q13131). The test can be described thus: Selectivity interaction (KinomeScan (DiscoverX)) EUB0000666a PRKAA1. As to conditions: at 10 µM.
In test [4] the target is T1, Interleukin-1 receptor-associated kinase 4 (Homo sapiens) (UniProt Q9NWZ3).
T1 sequence (whole entry): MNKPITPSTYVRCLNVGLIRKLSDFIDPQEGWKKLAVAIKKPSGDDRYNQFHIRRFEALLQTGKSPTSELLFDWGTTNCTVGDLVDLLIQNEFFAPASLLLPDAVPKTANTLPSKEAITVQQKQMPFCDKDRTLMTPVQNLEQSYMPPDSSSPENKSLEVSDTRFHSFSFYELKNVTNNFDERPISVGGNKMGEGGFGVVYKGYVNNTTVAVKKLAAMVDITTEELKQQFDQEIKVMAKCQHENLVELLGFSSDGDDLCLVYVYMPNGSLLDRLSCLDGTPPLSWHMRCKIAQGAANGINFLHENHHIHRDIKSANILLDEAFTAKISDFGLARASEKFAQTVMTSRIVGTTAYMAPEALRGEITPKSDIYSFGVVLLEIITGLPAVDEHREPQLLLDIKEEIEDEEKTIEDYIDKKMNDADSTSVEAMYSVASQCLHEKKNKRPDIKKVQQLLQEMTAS
The test can be described thus: Selectivity interaction (KinomeScan (DiscoverX)) EUB0000607a IRAK4. As to conditions: at 10 µM.

The target of test [5] is Protein-tyrosine kinase 2-beta (Homo sapiens) (UniProt Q14289). The settings on record: at 10 µM.
For test [6], the target named is Dual specificity mitogen-activated protein kinase kinase 2 (Homo sapiens) (UniProt P36507). The settings on record: at 10 µM.
In test [7] the target is T2, Mitogen-activated protein kinase 13 (Homo sapiens) (UniProt O15264).
T2 sequence (whole entry): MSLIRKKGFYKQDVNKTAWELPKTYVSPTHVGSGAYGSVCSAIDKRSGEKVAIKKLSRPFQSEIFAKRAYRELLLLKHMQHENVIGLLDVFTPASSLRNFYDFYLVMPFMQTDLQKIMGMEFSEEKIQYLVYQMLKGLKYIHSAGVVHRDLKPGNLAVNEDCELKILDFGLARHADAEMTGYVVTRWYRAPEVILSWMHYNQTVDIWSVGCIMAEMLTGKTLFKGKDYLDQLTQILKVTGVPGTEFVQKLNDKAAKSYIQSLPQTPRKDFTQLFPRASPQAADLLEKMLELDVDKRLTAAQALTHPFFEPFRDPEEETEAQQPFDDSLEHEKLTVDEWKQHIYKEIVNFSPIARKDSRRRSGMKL
Nature of the test: Selectivity interaction (Kinase screening (Upstate/Millipore)) EUB0000604a MAPK13.

Test [8] deals with Cyclin-dependent kinase 1/cyclin B (Homo sapiens) (UniProt P06493+P14635+Q8WWL7+O95067). Nature of the test: Selectivity interaction (Kinase panel (Invitrogen)) EUB0000639a CDK1. The settings on record: at 200 nM. Type of test: protein-complex assay.
Test [9] concerns the target Tyrosine-protein kinase Lyn (Homo sapiens, UniProt P07948). The test can be described thus: Selectivity interaction (Kinase panel (Invitrogen)) EUB0000639a LYN. As to conditions: at 200 nM.
The target of test [10] is Mitogen-activated protein kinase 14 (Homo sapiens, UniProt Q16539). The test can be described thus: Selectivity interaction (KinomeScan (DiscoverX)) EUB0000655a MAPK14. As to conditions: at 10 µM.
The target in test [11] is AP2-associated protein kinase 1 (Homo sapiens, UniProt Q2M2I8). The test can be described thus: Selectivity interaction (KinomeScan (DiscoverX)) EUB0000655a AAK1. As to conditions: at 10 µM.
Test [12] has as its system Epidermal growth factor receptor (Homo sapiens), P00533 [UNDEFINED MUTATION]. Nature of the test: Selectivity interaction (KinomeScan (DiscoverX)) EUB0000092b EGFR. As to conditions: at 10 µM.
The target of test [13] is Protein arginine N-methyltransferase 1 (Homo sapiens, UniProt Q99873). Nature of the test: Selectivity interaction (Methyltransferase screen (radiometric assays, panel of 8 PRMTs, 21 protein lysine methyltransferases, 3 DNA methyltransferases, and one RNA methyltransferase)) EUB0000272b PRMT1.
Test [14] deals with Serine/threonine-protein kinase SBK1 (Homo sapiens) (UniProt Q52WX2). Nature of the test: Selectivity interaction (KinomeScan (DiscoverX)) EUB0000229b SBK1. The settings on record: at 10 µM.
Test [15] deals with T3, Beta-adrenergic receptor kinase 1 (Homo sapiens) (UniProt P25098).
T3 sequence (whole entry): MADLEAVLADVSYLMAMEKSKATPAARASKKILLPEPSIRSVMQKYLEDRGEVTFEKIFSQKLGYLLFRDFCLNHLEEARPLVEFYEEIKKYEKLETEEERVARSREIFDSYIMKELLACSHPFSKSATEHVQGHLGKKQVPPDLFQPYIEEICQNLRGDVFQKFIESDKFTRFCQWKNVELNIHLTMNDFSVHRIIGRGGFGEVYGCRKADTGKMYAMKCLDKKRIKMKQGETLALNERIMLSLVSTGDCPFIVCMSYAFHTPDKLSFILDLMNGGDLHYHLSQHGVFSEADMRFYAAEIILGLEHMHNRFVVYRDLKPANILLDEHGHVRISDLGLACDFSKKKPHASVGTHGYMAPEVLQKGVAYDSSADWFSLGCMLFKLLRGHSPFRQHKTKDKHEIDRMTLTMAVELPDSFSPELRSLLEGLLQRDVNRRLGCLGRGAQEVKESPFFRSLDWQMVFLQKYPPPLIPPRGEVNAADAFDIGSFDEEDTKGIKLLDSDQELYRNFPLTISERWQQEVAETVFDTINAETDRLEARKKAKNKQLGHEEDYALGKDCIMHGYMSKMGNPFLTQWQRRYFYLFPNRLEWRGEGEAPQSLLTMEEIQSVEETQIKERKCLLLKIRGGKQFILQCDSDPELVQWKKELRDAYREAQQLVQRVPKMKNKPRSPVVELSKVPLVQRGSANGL
The test can be described thus: Selectivity interaction (Kinase panel (KiNativ target engagement assay in Jurkat cells)) EUB0001635a ADRBK1. Type of test: cell-based. As to conditions: Selectivity number of off-targets 0.0, Selectivity number of targets 233.0, Source Knowledge https://www.sciencedirect.com/science/article/pii/S2451945619300674?via%3Dihub, at 1 µM.

Sequence of Protein arginine N-methyltransferase 1 (Q99873 whole entry, looked up): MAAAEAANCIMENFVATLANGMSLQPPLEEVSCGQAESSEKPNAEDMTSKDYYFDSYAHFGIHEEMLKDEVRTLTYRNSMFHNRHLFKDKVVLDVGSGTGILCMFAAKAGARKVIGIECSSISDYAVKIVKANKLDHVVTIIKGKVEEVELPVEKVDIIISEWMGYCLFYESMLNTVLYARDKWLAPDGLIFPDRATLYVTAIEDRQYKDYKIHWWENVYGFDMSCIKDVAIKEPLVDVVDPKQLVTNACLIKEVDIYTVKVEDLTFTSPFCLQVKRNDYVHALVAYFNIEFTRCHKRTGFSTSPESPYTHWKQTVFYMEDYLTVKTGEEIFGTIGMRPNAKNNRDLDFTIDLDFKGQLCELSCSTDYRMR
Sequence of Epidermal growth factor receptor (Homo sapiens), P00533 [UNDEFINED MUTATION] (P00533 whole entry, looked up, change not shown): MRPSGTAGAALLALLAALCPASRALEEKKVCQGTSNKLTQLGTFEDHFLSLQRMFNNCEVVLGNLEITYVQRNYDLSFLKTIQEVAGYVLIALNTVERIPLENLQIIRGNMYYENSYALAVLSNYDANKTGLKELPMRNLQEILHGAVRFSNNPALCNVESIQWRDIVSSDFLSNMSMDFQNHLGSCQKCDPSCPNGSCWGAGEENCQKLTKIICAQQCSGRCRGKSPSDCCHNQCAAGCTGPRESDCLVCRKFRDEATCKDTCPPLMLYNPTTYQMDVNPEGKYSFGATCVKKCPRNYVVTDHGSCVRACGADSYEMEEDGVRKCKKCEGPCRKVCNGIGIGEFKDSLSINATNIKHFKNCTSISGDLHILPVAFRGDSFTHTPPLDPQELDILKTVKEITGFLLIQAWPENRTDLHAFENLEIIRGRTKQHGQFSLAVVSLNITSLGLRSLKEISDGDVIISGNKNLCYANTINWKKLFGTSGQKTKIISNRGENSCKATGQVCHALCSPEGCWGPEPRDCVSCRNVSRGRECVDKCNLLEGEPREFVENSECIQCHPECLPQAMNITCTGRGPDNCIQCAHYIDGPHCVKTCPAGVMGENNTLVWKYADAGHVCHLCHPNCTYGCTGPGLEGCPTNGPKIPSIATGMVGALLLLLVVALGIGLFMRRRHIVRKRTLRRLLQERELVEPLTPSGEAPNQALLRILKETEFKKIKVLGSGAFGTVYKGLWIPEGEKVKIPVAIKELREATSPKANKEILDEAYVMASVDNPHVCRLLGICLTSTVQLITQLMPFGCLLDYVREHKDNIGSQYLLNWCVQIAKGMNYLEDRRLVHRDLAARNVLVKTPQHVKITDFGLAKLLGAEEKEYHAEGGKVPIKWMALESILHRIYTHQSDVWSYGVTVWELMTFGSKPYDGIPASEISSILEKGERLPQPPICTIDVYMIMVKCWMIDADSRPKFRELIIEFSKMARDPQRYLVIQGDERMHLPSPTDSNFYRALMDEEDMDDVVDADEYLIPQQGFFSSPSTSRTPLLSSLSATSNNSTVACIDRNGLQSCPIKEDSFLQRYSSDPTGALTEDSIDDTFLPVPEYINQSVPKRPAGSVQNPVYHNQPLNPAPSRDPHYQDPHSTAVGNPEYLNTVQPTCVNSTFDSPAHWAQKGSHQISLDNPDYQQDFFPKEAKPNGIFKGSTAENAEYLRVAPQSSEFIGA
Sequence of Serine/threonine-protein kinase SBK1 (Homo sapiens) (Q52WX2 whole entry): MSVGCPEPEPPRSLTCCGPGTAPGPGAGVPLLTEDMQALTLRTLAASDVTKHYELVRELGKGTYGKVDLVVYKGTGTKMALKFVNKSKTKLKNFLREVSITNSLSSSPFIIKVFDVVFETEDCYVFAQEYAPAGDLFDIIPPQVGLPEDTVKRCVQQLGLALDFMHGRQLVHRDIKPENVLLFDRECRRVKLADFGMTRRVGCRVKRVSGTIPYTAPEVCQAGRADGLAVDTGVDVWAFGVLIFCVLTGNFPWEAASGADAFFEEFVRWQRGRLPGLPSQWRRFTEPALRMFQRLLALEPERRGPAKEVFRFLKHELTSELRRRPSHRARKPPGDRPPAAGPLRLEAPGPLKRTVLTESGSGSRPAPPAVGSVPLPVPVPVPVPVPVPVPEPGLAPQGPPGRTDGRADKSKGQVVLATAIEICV
Sequence of Ribosomal protein S6 kinase beta-1 (P23443 whole entry, looked up): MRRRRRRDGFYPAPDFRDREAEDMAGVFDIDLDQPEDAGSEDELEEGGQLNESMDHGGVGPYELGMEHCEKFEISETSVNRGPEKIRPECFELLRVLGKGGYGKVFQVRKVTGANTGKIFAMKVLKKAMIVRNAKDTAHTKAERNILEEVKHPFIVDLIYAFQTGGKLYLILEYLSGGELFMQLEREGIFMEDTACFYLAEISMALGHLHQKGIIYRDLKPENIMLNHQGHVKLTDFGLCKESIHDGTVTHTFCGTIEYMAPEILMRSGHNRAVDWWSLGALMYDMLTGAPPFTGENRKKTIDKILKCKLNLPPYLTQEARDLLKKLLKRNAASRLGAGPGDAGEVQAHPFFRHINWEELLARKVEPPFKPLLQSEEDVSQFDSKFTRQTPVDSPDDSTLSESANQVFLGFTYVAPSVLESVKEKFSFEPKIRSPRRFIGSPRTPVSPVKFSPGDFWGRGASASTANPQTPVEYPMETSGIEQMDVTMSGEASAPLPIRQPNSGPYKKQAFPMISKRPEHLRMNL
Sequence of Mitogen-activated protein kinase 14 (Q16539 whole entry): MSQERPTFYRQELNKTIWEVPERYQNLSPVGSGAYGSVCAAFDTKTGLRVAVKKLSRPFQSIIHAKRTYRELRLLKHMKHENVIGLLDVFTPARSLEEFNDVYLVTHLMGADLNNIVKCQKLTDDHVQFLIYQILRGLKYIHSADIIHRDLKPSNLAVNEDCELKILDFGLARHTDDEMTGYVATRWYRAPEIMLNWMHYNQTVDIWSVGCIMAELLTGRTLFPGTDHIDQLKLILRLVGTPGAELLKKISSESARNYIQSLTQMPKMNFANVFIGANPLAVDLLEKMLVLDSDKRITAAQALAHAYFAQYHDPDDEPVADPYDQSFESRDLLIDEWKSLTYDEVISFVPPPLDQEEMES
Sequence of AP2-associated protein kinase 1 (Q2M2I8 whole entry, looked up): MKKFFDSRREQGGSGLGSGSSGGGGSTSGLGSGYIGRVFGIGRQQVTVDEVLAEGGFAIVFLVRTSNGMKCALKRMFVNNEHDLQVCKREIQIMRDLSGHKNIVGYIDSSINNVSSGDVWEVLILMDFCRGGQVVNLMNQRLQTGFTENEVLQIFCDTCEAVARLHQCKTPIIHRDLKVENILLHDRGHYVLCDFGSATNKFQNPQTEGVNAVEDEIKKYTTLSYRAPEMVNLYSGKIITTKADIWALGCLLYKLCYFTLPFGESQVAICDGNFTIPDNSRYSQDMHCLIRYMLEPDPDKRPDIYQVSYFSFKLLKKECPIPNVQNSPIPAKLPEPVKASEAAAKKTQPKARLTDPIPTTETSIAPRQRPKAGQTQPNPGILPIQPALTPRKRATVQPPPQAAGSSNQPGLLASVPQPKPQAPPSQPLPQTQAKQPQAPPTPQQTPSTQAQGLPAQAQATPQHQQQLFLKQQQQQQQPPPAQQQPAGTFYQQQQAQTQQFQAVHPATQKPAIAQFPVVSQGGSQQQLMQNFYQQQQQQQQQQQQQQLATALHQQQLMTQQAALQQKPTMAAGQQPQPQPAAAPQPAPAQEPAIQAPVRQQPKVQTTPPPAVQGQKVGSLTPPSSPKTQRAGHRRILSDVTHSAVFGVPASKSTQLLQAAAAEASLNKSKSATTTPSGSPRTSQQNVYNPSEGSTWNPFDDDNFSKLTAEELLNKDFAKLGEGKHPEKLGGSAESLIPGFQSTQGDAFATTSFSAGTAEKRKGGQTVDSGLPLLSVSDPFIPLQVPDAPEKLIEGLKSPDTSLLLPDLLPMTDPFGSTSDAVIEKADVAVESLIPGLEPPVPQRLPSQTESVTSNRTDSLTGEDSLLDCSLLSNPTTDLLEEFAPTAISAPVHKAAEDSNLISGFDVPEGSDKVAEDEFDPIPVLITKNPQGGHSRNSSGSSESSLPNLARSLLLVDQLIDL
Sequence of Tyrosine-protein kinase Lyn (P07948 2-512 limits assumed): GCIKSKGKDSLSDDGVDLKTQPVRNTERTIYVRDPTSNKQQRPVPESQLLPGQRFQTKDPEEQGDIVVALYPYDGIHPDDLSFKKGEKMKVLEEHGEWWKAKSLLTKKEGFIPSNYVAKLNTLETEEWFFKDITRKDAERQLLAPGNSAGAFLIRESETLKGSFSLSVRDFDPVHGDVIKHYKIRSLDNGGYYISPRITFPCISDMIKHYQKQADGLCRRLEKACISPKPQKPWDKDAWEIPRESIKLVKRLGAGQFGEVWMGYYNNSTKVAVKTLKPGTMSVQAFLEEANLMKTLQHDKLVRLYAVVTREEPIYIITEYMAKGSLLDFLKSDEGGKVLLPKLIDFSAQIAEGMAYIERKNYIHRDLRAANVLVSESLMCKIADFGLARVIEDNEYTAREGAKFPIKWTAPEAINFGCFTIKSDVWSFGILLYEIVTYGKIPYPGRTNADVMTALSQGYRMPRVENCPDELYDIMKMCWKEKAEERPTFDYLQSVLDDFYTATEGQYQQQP
Sequence of Dual specificity mitogen-activated protein kinase kinase 2 (Homo sapiens) (P36507 whole entry): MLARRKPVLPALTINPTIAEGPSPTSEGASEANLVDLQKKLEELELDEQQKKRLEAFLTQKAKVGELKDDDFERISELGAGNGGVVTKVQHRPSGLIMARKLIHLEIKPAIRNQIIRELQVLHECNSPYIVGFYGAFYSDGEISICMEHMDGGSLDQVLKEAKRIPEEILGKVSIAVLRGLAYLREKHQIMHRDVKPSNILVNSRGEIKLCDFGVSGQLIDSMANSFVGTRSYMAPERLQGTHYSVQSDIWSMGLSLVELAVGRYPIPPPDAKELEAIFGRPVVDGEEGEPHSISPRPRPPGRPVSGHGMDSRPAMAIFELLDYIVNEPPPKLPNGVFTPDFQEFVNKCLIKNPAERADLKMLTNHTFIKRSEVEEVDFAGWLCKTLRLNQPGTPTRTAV

`Cn1cc(-n2cnc3c(NCc4nc5cc(Cl)c(Cl)cc5[nH]4)nc(N4CCOCC4)nc32)cn1` came in with a % of control in [1] of 2.46%.

For `CC(=O)c1cc(-c2ccccc2OCC2CC2)c2ncccn12`, the % of control in [2] stood at 105%.

For the molecule `O=C(NOC[C@H](O)CO)c1ccc(F)c(F)c1Nc1ccc(I)cc1F`, the % of control in [3] was determined as 100%.

In the case of `CNC(=O)Nc1ccc(-c2nc(N3CC4CCC(C3)O4)c3cnn(C4CCC5(CC4)OCCO5)c3n2)cc1`, the % of control in test [4] worked out at 100%.

With `Cc1cc([C@@H](C)Nc2ccccc2C(=O)O)c2nc(N3CCOCC3)cc(=O)n2c1` [AZD-6482], the % of control in [5] and in [6] was 100% in each case.

Consider `Cc1cnc(Nc2ccc(F)cc2Cl)nc1-c1c[nH]c(C(=O)N[C@H](CO)c2cccc(Cl)c2)c1`, for which the % of inhibition in test [7] was 54%.

Take `CC[C@@H]1[C@H](F)C(=O)N[C@@H]1COc1nccc2cc(C(N)=O)c(OC)cc12` [ZIMLOVISERTIB]: the values for the % of inhibition in test [8] and in test [9] were 11.5% and 6.8%, respectively.

On to `CN(C)CCOc1ccc(-c2nc(-c3ccncc3)c(-c3ccc4c(c3)CC/C4=N\O)[nH]2)cc1`, for which the % of control in test [10] came to 85%; in test [11], 76%.

As to `CCC(=O)N1CCN(c2ccc(-n3c(=O)ccc4cnc5ccc(-c6cnc7ccccc7c6)cc5c43)cc2C(F)(F)F)CC1`, the % of control in [12] is 84%.

Take `Cc1cc(C)cc([C@H]2c3cc(C)ccc3NC(=O)CN2C(=O)c2ccc(Br)s2)c1`: the % of activity in test [13] (at 1 µM) stood at 98.7%; in [13] (at 10 µM), 101%.

In [14], `COc1cc(N(C)c2ccnc3ccc(C(F)(F)F)cc23)cc(OC)c1OC` gave a % binding of 92%.

As to `C=CC(=O)Nc1ccc(C(=O)Nc2[nH]nc3c2CN(C(=O)N[C@H](CN(C)C)c2ccccc2)C3(C)C)cc1`, in test [15], the % of engagement was -2.6%.

For the origin of these results see ChEMBL document CHEMBL5465560, “Selectivity Literature for EUbOPEN Chemogenomic Library” (2024).
